Experimental data taken from US11261186B2, “Biaryl derivative as GPR120 agonist” (LG CHEM, LTD., priority 2014, dated 2022).

Target: T1, hGPR120 (Homo sapiens, UniProt Q5NUL3)
T1 construct: expressed in transfected cells; host or cells: CHO-K1
T1 sequence (Q5NUL3 1-361): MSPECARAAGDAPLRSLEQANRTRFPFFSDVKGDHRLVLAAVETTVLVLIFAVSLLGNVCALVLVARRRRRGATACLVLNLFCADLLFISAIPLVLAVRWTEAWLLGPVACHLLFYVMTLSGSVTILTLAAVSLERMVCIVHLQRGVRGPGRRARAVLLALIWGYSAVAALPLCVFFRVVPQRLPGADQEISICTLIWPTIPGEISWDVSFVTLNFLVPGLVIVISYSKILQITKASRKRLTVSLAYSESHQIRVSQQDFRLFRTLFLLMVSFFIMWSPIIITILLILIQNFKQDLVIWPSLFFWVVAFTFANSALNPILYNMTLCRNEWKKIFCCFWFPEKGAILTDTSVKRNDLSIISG
Experiment: Measurement of Activity of GPR120 Agonist (Cell-Based Assay), Calcium 5 dye fluorescence
Conditions: CHO-K1 cells expressing Ga16 and hGPR120
Method in brief: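 Gα16/hGPR120 CHO-K1; 18 h plating, 37 °C, 5% CO2; Calcium 5 dye load 1 h; agonist serial dilution, 0.5% DMSO final; fluor Ex485/Em525; response as % of 1% DMSO vehicle.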

| Compound | EC50 |
| --- | --- |
| O=C(O)CC1CCN(c2c(F)cc(-c3ccc(F)c(OC4CCC4)c3)cc2F)CC1 [Example 304, 2-[1-[4-[3-(cyclobutoxy)-4-fluoro-phenyl]-2,6-difluoro-phenyl]-4-piperidyl]acetic acid] | 200 to 2000 nM |
| CN(CCCC(=O)O)c1c(F)cc(-c2cccnc2OC2CCC2)cc1F [Example 206, 4-{[4-(2-cyclobutoxy-pyridin-3-yl)-2,6-difluoro-phenyl]-methyl-amino}-butyric acid] | < 200 nM |
| Oc1cc(CCOc2c(F)cc(-c3cccnc3OC3CCCC3)cc2F)on1 [Example 89, 5-[2-[4-[2-(cyclopentoxy)-3-pyridyl]-2,6-difluoro-phenoxy]ethyl]isoxazol-3-ol] | < 200 nM |
| CCCSc1cccc(-c2cc(F)c(N3CCC(CC(=O)O)CC3)c(F)c2)n1 [Example 298, 2-[1-[2,6-difluoro-4-(6-propylsulfanyl-2-pyridyl)phenyl]-4-piperidyl]acetic acid] | 200 to 2000 nM |
| Oc1cc(CCc2c(F)cc(-c3cccnc3OC3CCCC3)cc2F)on1 [Example 87, 5-[2-[4-[2-(cyclopentoxy)-3-pyridyl]-2,6-difluoro-phenyl]ethyl]isoxazol-3-ol] | < 200 nM |
| O=C(O)CCCOc1c(F)cc(-c2nccc(OC3CCC3)n2)cc1F [Example 420, 4-[4-(4-cyclobutoxy-pyrimidin-2-yl)-2,6-difluoro-phenoxy]-butyric acid] | < 200 nM |
| CC(C)Oc1cccc(-c2ccc3c(c2)CCC(CCC(=O)O)O3)n1 (stereo not shown) [Example 452, 3-[6-(6-isopropoxy-2-pyridyl)chroman-2-yl]propanoic acid] | < 200 nM |
| O=C(O)CCCOc1c(F)cc(-c2cncc(OC3CCC3)n2)cc1Cl [Example 430, 4-[2-chloro-4-(6-cyclobutoxy-pyrazin-2-yl)-6-fluoro-phenoxy]-butyric acid] | < 200 nM |
| CC(C)Oc1cccc(-c2ccc3cc(CCC(=O)O)ccc3c2)c1 [Example 146, 3-[6-(3-isopropoxy-phenyl)-naphthalen-2-yl]-propanoic acid] | 200 to 2000 nM |
| CC(C)Sc1cccc(-c2cc(F)c(-n3cc(CC(=O)O)cn3)c(F)c2)n1 [Example 123, 2-[1-[2,6-difluoro-4-(6-isopropylsulfanyl-2-pyridyl)phenyl]pyrazol-4-yl]acetic acid] | 200 to 2000 nM |
| CC(C)Sc1cccc(-c2cc(F)c(N3CCC4(CC3)CC4C(=O)O)c(F)c2)n1 (stereo not shown) [Example 111, 6-[2,6-difluoro-4-(6-isopropylsulfanyl-2-pyridyl)phenyl]-6-azaspiro[2.5]octan-2-carboxylic acid] | 2000 to 20000 nM |
| O=C(O)CCCCc1ccc(-c2cccc(OC3CCC3)n2)cc1F [Example 537, 5-[4-(6-cyclobutoxy-pyridin-2-yl)-2-fluoro-phenyl]-pentanoic acid] | < 200 nM |
| CC(C)CCc1cncc(-c2cc(F)c(N3CCC(CC(=O)O)CC3)c(F)c2)n1 [Example 370, 2-[1-[2,6-difluoro-4-(6-isopentylpyrazin-2-yl)phenyl]-4-piperidyl]acetic acid] | 200 to 2000 nM |
| Cc1cc(OCC2CC2)nc(-c2cc(F)c(N3CCC(CC(=O)O)C3)c(F)c2)n1 (stereo not shown) [Example 576, {1-[4-(4-cyclopropylmethoxy-6-methyl-pyrimidin-2-yl)-2,6-difluoro-phenyl]-pyrrolidin-3-yl}-acetic acid] | < 200 nM |
| O=C(O)CC1CCN(c2c(F)cc(-c3ncc(F)c(OC4CCC4)n3)cc2F)CC1 [Example 371, 2-[1-[4-[4-(cyclobutoxy)-5-fluoro-pyrimidin-2-yl]-2,6-difluoro-phenyl]-4-piperidyl]acetic acid] | < 200 nM |
| O=C(O)CCCOc1c(F)cc(-c2cc(F)cc(OC3CCC3)c2)cc1Cl [Example 389, 4-[2-chloro-4-[3-(cyclobutoxy)-5-fluoro-phenyl]-6-fluoro-phenoxy]butanoic acid] | < 200 nM |
| O=C(O)CCc1ccc2cc(-c3cccc(OC4CCC4)n3)ccc2c1 [Example 148, 3-[6-(6-cyclobutoxy-pyridin-2-yl)-naphthalen-2-yl]-propanoic acid] | 200 to 2000 nM |
| CCCOc1cncc(-c2cc(F)c(N3CCC(CC(=O)O)C3)c(F)c2)n1 (stereo not shown) [Example 495, 2-{1-[2,6-difluoro-4-(6-propoxy-pyrazin-2-yl)phenyl]pyrrolidin-3-yl}acetic acid] | < 200 nM |

The next lines start with the values.

| EC50 | Compound |
| --- | --- |
| < 200 nM | CC(CCCC(=O)O)c1c(F)cc(-c2cccnc2OC2CCOC2)cc1F (stereo not shown) [Example 230, 5-{2,6-difluoro-4-[2-(tetrahydro-furan-3-yloxy)-pyridin-3-yl]-phenyl}-hexanoic acid] |
| < 200 nM | O=C(O)CCCCc1ccc(-c2cccnc2SC2CCCC2)cc1F [Example 248, 5-[4-(2-cyclopentylsulfanyl-pyridin-3-yl)-2-fluoro-phenyl]-pentanoic acid] |
| < 200 nM | Cc1cc(OCC2CC2)nc(-c2cc(F)c(OCCCC(=O)O)c(Cl)c2)n1 [Example 396, 4-[2-chloro-4-[4-(cyclopropylmethoxy)-6-methyl-pyrimidin-2-yl]-6-fluoro-phenoxy]butanoic acid] |
| 200 to 2000 nM | CC(CCCC(=O)O)c1c(F)cc(-c2cccc3c2OC2(CCCC2)C3)cc1F (stereo not shown) [Example 264, 5-(2,6-difluoro-4-spiro[3H-benzofuran-2,1′-cyclopentan]-7-yl-phenyl)-hexanoic acid] |
| < 200 nM | O=C(O)CCCC(F)(F)c1ccc(-c2cccnc2OC2CCCC2)cc1 [Example 177, 5-[4-(2-cyclopentyloxy-pyridin-3-yl)-phenyl]-5,5-difluoro-pentanoic acid] |
| < 200 nM | CC(C)Sc1ncccc1-c1cc(F)c(N2CC(CC(=O)O)C2)c(F)c1 [Example 109, 2-[1-[2,6-difluoro-4-(2-isopropylsulfanyl-3-pyridyl)phenyl]azetidin-3-yl]acetic acid] |
| < 200 nM | CC(C)Sc1ncccc1-c1cc(F)c(N2CC[C@@H](CC(=O)O)C2)c(F)c1 [Example 136, 2-[(3S)-1-[2,6-difluoro-4-(2-isopropylsulfanyl-3-pyridyl)phenyl]pyrrolidin-3-yl]acetic acid] |
| < 200 nM | CCCSc1ncccc1-c1cc(F)c(N(C)CCCC(=O)O)c(F)c1 [Example 207, 4-{[2,6-difluoro-4-(2-propylsulfanyl-pyridin-3-yl)-phenyl]-methyl-amino}-butyric acid] |
| < 200 nM | O=C(O)C1CC1CNc1c(F)cc(-c2cccnc2SC2CCCC2)cc1F (stereo not shown) [Example 210, 2-{[4-(2-cyclopentylsulfanyl-pyridin-3-yl)-2,6-difluoro-phenylamino]-methyl}-cyclopropanecarboxylic acid] |
| < 200 nM | O=C(O)CCCC(F)(F)c1ccc(-c2cccnc2OCC2CC2)cc1 [Example 181, 5-[4-(2-cyclopropylmethoxy-pyridin-3-yl)-phenyl]-5,5-difluoro-pentanoic acid] |
| < 200 nM | O=C(O)CCCSc1ccc(-c2cccnc2OCC2CC2)cc1F [Example 239, 4-[4-(2-cyclopropylmethoxy-pyridin-3-yl)-2-fluoro-phenylsulfanyl]-butyric acid] |
| < 200 nM | CCCOc1cccc(-c2cc(F)c(N3CCC(CC(=O)O)CC3)c(F)c2)n1 [Example 295, 2-[1-[2,6-difluoro-4-(6-propoxy-2-pyridyl)phenyl]-4-piperidyl]acetic acid] |
| < 200 nM | CC(CCCC(=O)O)c1c(F)cc(-c2cccnc2OCC2CC2)cc1F (stereo not shown) [Example 60, 5-[4-(2-cyclopropylmethoxy-3-pyridyl)-2,6-difluoro-phenyl]hexanoic acid] |
